In article PMC3896336, “Discovery of a Novel Target for the Dysglycemic Chromogranin A Fragment Pancreastatin: Interaction with the Chaperone GRP78 to Influence Metabolism” (PLoS ONE, 2014):
Entries after “also recorded” stand apart in the source; their conditions may differ. Where no end group is shown, it is not given here.

Tests used:
db/db mice = test system: db/db mice; set-up: method as in PMID 16931765; settings: ref [38]; cited from earlier work
[1] = test system: human G6P-ase promoter-luciferase reporter, HepG2 hepatocytes; experiment: G6Pase promoter-luciferase reporter activity in HepG2 hepatocytes; type: cell-based; settings: for effect on reduction of G6Pase promoter activity by GRP78 over-expression: PST 100 nM, HepG2 with pCMV-GRP78, Fig. 6B; for effect on reduction of G6Pase promoter activity by GRP78 over-expression / basal G6Pase-luciferase promoter activity with GRP78 ATPase inhibitor: VER-155008 1 µM or ADP 10 µM; for basal G6Pase-luciferase promoter activity with GRP78 ATPase inhibitor: HepG2, Fig. 6B
Protocol: The human G6P-ase promoter-luciferase reporter plasmid has been described. The GRP78 (BIP) promoter-luciferase reporter was a gift from Bruce M. Spiegelman (Harvard Medical School). The pCMV promoter-driven human GRP78 (HSPA5) expression plasmid was from Origene <www.origene.com/>. pSV-Beta-Gal (a transfection efficiency control plasmid, in which the SV40 early promoter drives expression of beta-galactosidase) was obtained from Promega <www.promega.com>.
Cells were plated on 24 well tissue culture plates the day before transfection. 0.5 to 1.0 µg of total DNA per well was used for transfection with Transfectin (BioRad). In some experiments, pSV-Beta-Gal (Promega; in which the SV40 early promoter drives expression of beta-galactosidase) was co-transfected as a transfection efficiency control. After 5 hrs supernatants were removed and fresh media containing different compounds as mentioned in the respective figures were added. 18 hrs after transfection, supernatants were removed and cells were lysed in passive lysis buffer (Promega) and the luciferase and beta-galactosidase activity were measured. Luciferase activity was normalized by beta-galactosidase as well as cellular protein, determined by dye-binding (coomassie G-250; BioRad).
Figure 5 PST acts on both uptake and mobilization steps for glucose: Effects on cellular glucose metabolism and insulin action. (A) PST and glucose uptake. Mouse 3T3-L1 cells were induced to differentiate into adipocytes, and 7–10 days post-differentiation glucose uptake was measured by incubating cells with 2-deoxy-[^3H]-glucose in the presence or absence of PST (100 nM), insulin (100 nM), or insulin plus PST (100 nM each). (B) Glucose mobilization and PST: Effects on expression of the gluconeogenic/glycogenolytic enzyme G6Pase (glucose-6-phosphatase). Human HepG2 hepatocytes were transfected with a glucose-6-phosphatase (G6P-ase)→luciferase reporter plasmid along with a beta gal reporter plasmid as mentioned in the experimental procedures, and 5 hrs after transfection cells were treated with PST (100 nM), insulin (100 nM), or both insulin and PST (100 nM each). Cells were harvested at 18–20 hrs after transfection to measure luciferase activity, beta gal activity and protein.
(§1) Figure 6 Role of the gluconeogenic/glycogenolytic enzyme G6Pase: Response to PST, GRP78, and inhibition of GRP78's ATPase enzymatic activity. (A) G6Pase expression, PST, and GRP78. Human HepG2 hepatocytes were transfected with G6P-ase→luciferase, along with pCMV-GRP78 or an empty vector (pCMV promoter without insert). 5 hrs after transfection, cells were treated with PST (100 nM) itself (versus mock), or by UPR activation (tunicamycin, 5 µg/mL; or thapsigargin, 0.3 µM). Cells were harvested at 18–20 hrs to measure luciferase activity and protein. (B) G6Pase expression during ATPase enzymatic activity inhibition of GRP78. Human HepG2 hepatocytes were transfected as in (A), and 5 hrs later were treated with the GRP78 ATPase inhibitors VER-155008 (1 µM), ADP (10 µM), or PST (100 nM). Cells were harvested at 18–20 hrs to measure luciferase activity and protein. (C) GRP78 expression: Visualization by immunoblot. Changes in GRP78 expression are shown by anti-GRP78 immunoblot (control: anti-actin), during either UPR activation (by thapsigargin 0.3 µM or tunicamycin 5 µg/mL), or exogenous over-expression (transfection of pCMV-GRP78).

[2] = test system: GRP78 protein expression, HepG2 hepatocytes; experiment: GRP78 protein expression by anti-GRP78 immunoblot in hepatocytes; type: cell-based, human; settings: UPR activation by tunicamycin 5 µg/mL or thapsigargin 0.3 µM; Fig. 6C
Protocol: as §1

cellular glucose uptake = settings: naturally occurring human variant; ref [14]; cited from earlier work
Excerpt: The activity of PST as a regulatory gastroenteropancreatic peptide has been established in the light of a variety of biological effects in a number of tissues [6]–[9], including its role in modulation of energy metabolism, with a general counter-regulatory effect to insulin. […] Metabolic effects of PST have been c ...

GRP78 (HSPA5, BIP) = experiment: Ligand affinity isolation of PST binding protein from mouse liver membranes (biotinylated peptide as bait, streptavidin agarose, SDS-PAGE, LC-MS/MS); settings: control ligand affinity experiment, immobilized biotinylated catestatin (human CHGA352–372), liver homogenate; results not shown

Question: With O=C(O)CCCc1ccccc1 [4-phenylbutyric acid (PBA), 4-phenylbutyric acid] as the molecule, how does the “ER stress, glucose homeostasis and insulin sensitivity” value (db/db mice) read?
Answer: The value was “reduced ER stress, with restored glucose homeostasis and improved insulin sensitivity”.

Question: Which results are given for Nc1ncnc2c1ncn2[C@@H]1O[C@H](COP(=O)(O)OP(=O)(O)O)[C@@H](O)[C@H]1O [ADP, adenosine 5′-diphosphate]?
Answer: effect on reduction of G6Pase promoter activity by GRP78 over-expression [1]: could not fully overcome the effect of GRP78 over-expression; also recorded: could still be partially reversed; basal G6Pase-luciferase promoter activity with GRP78 ATPase inhibitor [1]: basal G6Pase-luciferase promoter activity rose (Fig. 6B) to a level comparable to PST activation

Question: Which “ER stress, glucose homeostasis and insulin sensitivity” value (db/db mice) does the source give for C[C@H](CCC(=O)NCCS(=O)(=O)O)[C@H]1CC[C@H]2[C@@H]3[C@@H](O)C[C@@H]4C[C@H](O)CC[C@]4(C)[C@H]3CC[C@]12C [TUDCA, tauroursodeoxycholic acid] here?
Answer: The value was “reduced ER stress, with restored glucose homeostasis and improved insulin sensitivity”.

Question: With N#Cc1ccc(COC[C@H]2O[C@@H](n3c(NCc4ccc(Cl)c(Cl)c4)nc4c(N)ncnc43)[C@H](O)[C@@H]2O)cc1 [VER-155008] as the molecule, how does the “effect on reduction of G6Pase promoter activity by GRP78 over-expression” value [1] read?
Answer: Its value is “could not fully overcome the effect of GRP78 over-expression; also recorded: could still be partially reversed”.

Question: What about the “basal G6Pase-luciferase promoter activity with GRP78 ATPase inhibitor” value [1] of the same molecule?
Answer: Its value is “basal G6Pase-luciferase promoter activity rose (Fig. 6B) to a level comparable to PST activation”.

Question: Which “increase in GRP78 protein expression as compared to untreated cells” value [2] does the source give for C/C=C(/C)C(=O)O[C@H]1C(C)=C2[C@H]([C@@H]1OC(=O)CCCCCCC)[C@@](C)(OC(C)=O)C[C@H](OC(=O)CCC)[C@@]1(O)[C@H]2OC(=O)[C@@]1(C)O [thapsigargin] here?
Answer: The value was roughly 15 fold.

Question: Which “potency to inhibit cellular glucose uptake” value (cellular glucose uptake) does the source give for “Gly297Ser: naturally occurring human PST variant, Gly297Ser in the functionally important carboxyl terminus of the peptide (SEALAVDGAGKPGAEEAQDPEGKGEQEHSQQKEEEEEMAVVPQSLFRG; ends and bridges not checked; UniProt P10645 272-319, looked up, variant G297S)” here?
Answer: Its value is “substantially increasing its potency to inhibit cellular glucose uptake”.

Question: Which “pull down of GRP78” value (GRP78 (HSPA5, BIP)) does the source give for catestatin here?
Answer: The value was “did not pull down the GRP78 protein”.

Question: With insulin as the molecule, how does the “suppression of PST-induced activation of the G6Pase promoter” value ([1]; insulin 100 nM plus PST 100 nM, HepG2, Fig. 5B) read?
Answer: Its value is roughly 40%.

Question: With tunicamycin as the molecule, how does the “increase in GRP78 protein expression as compared to untreated cells” value [2] read?
Answer: Its value is roughly 15 fold.
